{
  "source": "patent US6420383B1",
  "about": "“Thiepino[3,2-b]dihydropyridines and related compositions and methods” (Ortho-McNeil Pharmaceutical, Inc., priority 2000, dated 2002)",
  "data": [
    {"molecular_target": "T1, calcium channel (3H-nitrendipine binding, heart membranes) (Oryctolagus cuniculus, UniProt P15381)", "T1 construct": "from tissue; host or cells: rabbit heart membrane preparation", "T1 sequence (P15381 whole entry, other chains not shown)": "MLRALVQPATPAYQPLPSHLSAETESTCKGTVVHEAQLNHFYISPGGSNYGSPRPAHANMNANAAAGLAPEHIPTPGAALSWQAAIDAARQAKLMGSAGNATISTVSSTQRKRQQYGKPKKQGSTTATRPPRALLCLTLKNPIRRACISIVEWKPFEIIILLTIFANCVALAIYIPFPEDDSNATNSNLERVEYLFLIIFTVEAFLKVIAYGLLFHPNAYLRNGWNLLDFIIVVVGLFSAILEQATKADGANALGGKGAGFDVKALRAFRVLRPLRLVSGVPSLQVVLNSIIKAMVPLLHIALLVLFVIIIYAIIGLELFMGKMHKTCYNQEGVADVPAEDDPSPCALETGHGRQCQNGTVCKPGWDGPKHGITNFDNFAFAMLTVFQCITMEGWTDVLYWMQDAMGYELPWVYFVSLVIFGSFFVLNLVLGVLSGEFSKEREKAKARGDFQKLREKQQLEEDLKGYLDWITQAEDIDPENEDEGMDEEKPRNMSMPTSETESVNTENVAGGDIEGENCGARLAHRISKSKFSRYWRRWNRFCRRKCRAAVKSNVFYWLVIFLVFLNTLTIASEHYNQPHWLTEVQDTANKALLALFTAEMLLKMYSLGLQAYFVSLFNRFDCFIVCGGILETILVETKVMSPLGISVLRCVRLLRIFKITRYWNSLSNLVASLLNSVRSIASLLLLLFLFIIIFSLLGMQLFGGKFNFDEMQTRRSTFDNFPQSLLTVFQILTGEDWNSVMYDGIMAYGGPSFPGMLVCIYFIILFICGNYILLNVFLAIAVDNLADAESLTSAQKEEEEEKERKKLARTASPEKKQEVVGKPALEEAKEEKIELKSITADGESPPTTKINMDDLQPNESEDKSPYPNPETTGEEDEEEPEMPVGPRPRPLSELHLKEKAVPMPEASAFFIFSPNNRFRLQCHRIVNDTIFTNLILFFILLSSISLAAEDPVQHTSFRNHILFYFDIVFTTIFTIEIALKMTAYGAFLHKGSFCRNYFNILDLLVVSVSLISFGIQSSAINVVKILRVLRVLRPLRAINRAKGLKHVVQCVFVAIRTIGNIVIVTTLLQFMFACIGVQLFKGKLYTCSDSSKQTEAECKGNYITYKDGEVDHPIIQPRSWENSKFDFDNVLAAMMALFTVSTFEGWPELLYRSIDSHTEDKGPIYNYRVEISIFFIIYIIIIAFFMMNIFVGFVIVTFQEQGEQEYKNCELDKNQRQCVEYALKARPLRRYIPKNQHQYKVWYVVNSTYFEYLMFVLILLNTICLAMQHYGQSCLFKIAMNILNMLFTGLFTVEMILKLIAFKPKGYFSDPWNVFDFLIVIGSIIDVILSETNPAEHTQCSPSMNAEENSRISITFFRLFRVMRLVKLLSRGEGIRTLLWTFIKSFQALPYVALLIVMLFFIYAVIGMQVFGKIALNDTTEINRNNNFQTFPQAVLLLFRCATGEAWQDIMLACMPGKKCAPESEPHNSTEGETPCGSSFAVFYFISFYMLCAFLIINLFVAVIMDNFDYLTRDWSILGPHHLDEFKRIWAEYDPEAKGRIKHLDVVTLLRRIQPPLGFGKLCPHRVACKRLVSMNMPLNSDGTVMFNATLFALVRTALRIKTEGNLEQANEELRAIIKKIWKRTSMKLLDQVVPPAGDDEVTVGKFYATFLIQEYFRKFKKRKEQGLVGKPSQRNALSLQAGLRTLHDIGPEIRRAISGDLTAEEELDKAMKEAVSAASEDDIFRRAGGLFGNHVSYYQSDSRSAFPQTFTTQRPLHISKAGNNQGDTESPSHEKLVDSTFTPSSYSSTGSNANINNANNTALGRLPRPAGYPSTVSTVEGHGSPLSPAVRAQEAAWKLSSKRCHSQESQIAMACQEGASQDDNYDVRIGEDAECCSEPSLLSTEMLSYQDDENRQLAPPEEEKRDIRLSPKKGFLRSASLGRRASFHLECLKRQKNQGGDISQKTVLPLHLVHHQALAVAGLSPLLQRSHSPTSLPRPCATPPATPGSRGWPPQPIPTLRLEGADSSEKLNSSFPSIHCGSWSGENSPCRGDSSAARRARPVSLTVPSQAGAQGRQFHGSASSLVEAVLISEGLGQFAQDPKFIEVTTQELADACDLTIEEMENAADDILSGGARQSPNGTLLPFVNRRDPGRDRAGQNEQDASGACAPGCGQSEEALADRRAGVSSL", "T1 sequence (P13806 27-960 partner limits assumed, other chains not shown)": "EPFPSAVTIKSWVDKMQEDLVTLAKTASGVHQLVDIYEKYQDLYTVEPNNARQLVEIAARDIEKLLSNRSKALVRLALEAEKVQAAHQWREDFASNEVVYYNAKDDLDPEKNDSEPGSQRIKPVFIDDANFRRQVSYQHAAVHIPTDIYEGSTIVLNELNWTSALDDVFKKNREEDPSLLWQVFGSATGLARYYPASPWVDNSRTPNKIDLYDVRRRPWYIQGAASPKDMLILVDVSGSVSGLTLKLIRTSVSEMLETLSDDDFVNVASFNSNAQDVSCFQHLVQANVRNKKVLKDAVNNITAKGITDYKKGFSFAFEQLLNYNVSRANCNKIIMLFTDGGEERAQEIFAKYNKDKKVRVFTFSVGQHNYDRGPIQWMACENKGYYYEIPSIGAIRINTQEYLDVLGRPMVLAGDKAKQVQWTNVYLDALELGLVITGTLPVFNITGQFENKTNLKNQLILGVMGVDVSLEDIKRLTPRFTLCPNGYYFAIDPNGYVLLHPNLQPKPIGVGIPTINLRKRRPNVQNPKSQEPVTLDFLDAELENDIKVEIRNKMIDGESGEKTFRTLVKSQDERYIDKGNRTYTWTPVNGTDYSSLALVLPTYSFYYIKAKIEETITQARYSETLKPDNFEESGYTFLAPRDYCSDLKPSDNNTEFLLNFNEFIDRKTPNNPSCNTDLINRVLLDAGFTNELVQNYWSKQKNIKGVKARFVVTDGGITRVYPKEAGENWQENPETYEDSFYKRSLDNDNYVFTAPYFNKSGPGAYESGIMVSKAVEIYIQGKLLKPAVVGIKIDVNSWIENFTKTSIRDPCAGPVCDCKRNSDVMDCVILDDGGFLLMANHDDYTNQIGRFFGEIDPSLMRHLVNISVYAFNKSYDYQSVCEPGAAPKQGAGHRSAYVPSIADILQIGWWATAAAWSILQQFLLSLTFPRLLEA", "T1 sequence (P13806 961-1106 partner limits assumed, other chains not shown)": "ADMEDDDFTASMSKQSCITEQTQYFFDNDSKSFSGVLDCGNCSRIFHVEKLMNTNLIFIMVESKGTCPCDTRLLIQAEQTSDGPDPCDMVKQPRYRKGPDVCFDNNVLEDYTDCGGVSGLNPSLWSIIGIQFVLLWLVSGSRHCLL", "test": "Assay for inhibition of nitrendipine binding (calcium channel antagonist activity)", "details": "3H-nitrendipine 0.05-0.50 nM, rabbit heart membranes, 90 minutes at 4° C.", "protocol": "Female, New Zealand white rabbits (1-2 kg) are sacrificed by cervical dislocation, and the heart is immediately removed, cleaned and chopped into small pieces. The tissue is homogenized in 5×times volume of 0.05M Hepes buffer, pH 7.4. The homogenate is centrifuged at 4000 g for 10 minutes, and the supernatant is re-centrifuged at 42,000×g for 90 minutes. The resulting membrane pellet is re-suspended (0.7 ml/g weight) in 0.05M Hepes, pH 7.4 and stored at […] until used. Each tube of the binding assay contains ^3H-nitrendipine (0.05-0.50 nM), buffer, membranes (0.10 ml), and test compound in a total volume of 1.0 ml. After 90 minutes at 4° C., the bound nitrendipine is separated from the unbound by filtration on Whatman GF/C filters. After rinsing, the filters are dried and counted in a liquid scintillation counter.\nNon-specific binding of ^3H-nitrendipine (that amount bound in the presence of excess unlabelled nitrendipine) is subtracted from the total bound to obtain specifically bound radiolabeled nitrendipine. The amount of specifically bound nitrendipine in the presence of a test compound is compared to that amount bound in the absence of a compound. A percent displacement (or inhibition) can then be calculated.", "units": {"IC50": "nM"}, "values": [
      {"molecule": "CCOC(=O)C1=C(c2ccccc2)NC2=C(C1c1ccc(Cl)cc1)S(=O)(=O)CCCC2", "note": "(centres unmarked) [Compound 1, Thiepino[3,2-b]pyridine-3-carboxylic acid, 4-(4-chlorophenyl)-1,4,6,7,8,9-hexahydro-2-phenyl-, ethyl ester, 5,5-dioxide]", "IC50": 2000},
      {"molecule": "CCOC(=O)C1=C(c2ccccc2)NC2=C(C1c1cccc(Cl)c1Cl)S(=O)(=O)CCCC2", "note": "(centres unmarked) [Compound 2, Thiepino[3,2-b]pyridine-3-carboxylic acid, 4-(2,3-dichlorophenyl)-1,4,6,7,8,9-hexahydro-2-phenyl-, ethyl ester, 5,5-dioxide]", "IC50": 115},
      {"molecule": "COC(=O)C1=C(c2ccccc2)NC2=C(C1c1cccc(Cl)c1)S(=O)(=O)CCCC2", "note": "(centres unmarked) [Compound 3, Thiepino[3,2-b]pyridine-3-carboxylic acid, 4-(3-chlorophenyl)-1,4,6,7,8,9-hexahydro-2-phenyl-, methyl ester, 5,5-dioxide]", "IC50": 2000},
      {"molecule": "CN(CCOC(=O)C1=C(c2ccccc2)NC2=C(C1c1cccc(Cl)c1)S(=O)(=O)CCCC2)Cc1ccccc1", "note": "(centres unmarked) [Compound 4, Thiepino[3,2-b]pyridine-3-carboxylic acid, 4-(3-chlorophenyl)-1,4,6,7,8,9-hexahydro-2-phenyl-, 2-[methyl(phenylmethyl)amino]ethyl ester, 5,5-dioxide]", "IC50": 192},
      {"molecule": "CN(CCOC(=O)C1=C(c2ccccc2)NC2=C(C1c1c(O)cccc1Cl)S(=O)(=O)CCCC2)Cc1ccccc1", "note": "(centres unmarked) [Compound 5, Thiepino[3,2-b]pyridine-3-carboxylic acid, 4-(2-chloro-6-hydroxyphenyl)-1,4,6,7,8,9-hexahydro-2-phenyl-, 2-[methyl(phenylmethyl)amino]ethyl ester, 5,5-dioxide]", "IC50": 2000},
      {"molecule": "CN(CCOC(=O)C1=C(c2ccccc2)NC2=C(C1c1ccccc1Cl)S(=O)(=O)CCCC2)Cc1ccccc1", "note": "(centres unmarked) [Compound 6, Thiepino[3,2-b]pyridine-3-carboxylic acid, 4-(2-chlorophenyl)-1,4,6,7,8,9-hexahydro-2-phenyl-, 2-[methyl(phenylmethyl)amino]ethyl ester, 5,5-dioxide]", "IC50": 312},
      {"molecule": "CCOC(=O)C1=C(c2ccccc2)NC2=C(C1c1c(O)cccc1Cl)S(=O)(=O)CCCC2", "note": "(centres unmarked) [Compound 7, Thiepino[3,2-b]pyridine-3-carboxylic acid, 4-(2-chloro-6-hydroxyphenyl)-1,4,6,7,8,9-hexahydro-2-phenyl-, ethyl ester, 5,5-dioxide]", "IC50": 2000},
      {"molecule": "CCOC(=O)C1=C(c2ccccc2)NC2=C(C1c1ccccc1Cl)S(=O)(=O)CCCC2", "note": "(centres unmarked) [Compound 8, Thiepino[3,2-b]pyridine-3-carboxylic acid, 4-(2-chlorophenyl)-1,4,6,7,8,9-hexahydro-2-phenyl-, ethyl ester, 5,5-dioxide]", "IC50": 580},
      {"molecule": "CC1=C(C(=O)OCCN(C)Cc2cccs2)C(c2c(F)cccc2Cl)C2=C(CCCCS2(=O)=O)N1", "note": "(centres unmarked) [Compound 9, Thiepino[3,2-b]pyridine-3-carboxylic acid, 4-(2-chloro-6-fluorophenyl)-1,4,6,7,8,9-hexahydro-2-methyl-, 2-[methyl(2-thienylmethyl)amino]ethyl ester, 5,5-dioxide]", "IC50": 29.5},
      {"molecule": "CCOC(=O)C1=C(c2ccccc2)NC2=C(C1c1c(F)c(F)c(F)c(F)c1F)S(=O)(=O)CCCC2", "note": "(centres unmarked) [Compound 10, Thiepino[3,2-b]pyridine-3-carboxylic acid, 1,4,6,7,8,9-hexahydro-4-(2,3,4,5,6-pentafluorophenyl)-2-phenyl-, ethyl ester, 5,5-dioxide]", "IC50": 684},
      {"molecule": "CCOC(=O)C1=C(c2ccccc2)NC2=C(C1c1cccc([N+](=O)[O-])c1)S(=O)(=O)CCCC2", "note": "(centres unmarked) [Compound 11, Thiepino[3,2-b]pyridine-3-carboxylic acid, 1,4,6,7,8,9-hexahydro-4-(3-nitrophenyl)-2-phenyl-, ethyl ester, 5,5-dioxide]", "IC50": 6950},
      {"molecule": "CC1=C(C(=O)OCCN(C)Cc2cccs2)C(c2c(F)c(F)c(F)c(F)c2F)C2=C(CCCCS2(=O)=O)N1", "note": "(centres unmarked) [Compound 12, Thiepino[3,2-b]pyridine-3-carboxylic acid, 1,4,6,7,8,9-hexahydro-2-methyl-4-(2,3,4,5,6-pentafluorophenyl)-, 2-[methyl(2-thienylmethyl)amino]ethyl ester, 5,5-dioxide]", "IC50": 5.9},
      {"molecule": "CC1=C(C(=O)OCCN(C)Cc2cccs2)C(c2cccc([N+](=O)[O-])c2)C2=C(CCCCS2(=O)=O)N1", "note": "(centres unmarked) [Compound 13, Thiepino[3,2-b]pyridine-3-carboxylic acid, 1,4,6,7,8,9-hexahydro-2-methyl-4-(3-nitrophenyl)-, 2-[methyl(2-thienylmethyl)amino]ethyl ester, 5,5-dioxide]", "IC50": 7.1},
      {"molecule": "CC1=C(C(=O)OCCN(C)Cc2cccs2)C(c2ccccc2Cl)C2=C(CCCCS2(=O)=O)N1", "note": "(centres unmarked) [Compound 14, Thiepino[3,2-b]pyridine-3-carboxylic acid, 4-(2-chlorophenyl)-1,4,6,7,8,9-hexahydro-2-methyl-, 2-[methyl(2-thienylmethyl)amino]ethyl ester, 5,5-dioxide]", "IC50": 15},
      {"molecule": "CCOC(=O)C1=C(c2cccs2)NC2=C(C1c1ccccc1Cl)S(=O)(=O)CCCC2", "note": "(centres unmarked) [Compound 15, Thiepino[3,2-b]pyridine-3-carboxylic acid, 4-(2-chlorophenyl)-1,4,6,7,8,9-hexahydro-2-(2-thienyl)-, ethyl ester, 5,5-dioxide]", "IC50": 2500},
      {"molecule": "CCOC(=O)C1=C(c2cccs2)NC2=C(C1c1cccc(Cl)c1)S(=O)(=O)CCCC2", "note": "(centres unmarked) [Compound 16, Thiepino[3,2-b]pyridine-3-carboxylic acid, 4-(3-chlorophenyl)-1,4,6,7,8,9-hexahydro-2-(2-thienyl)-, ethyl ester, 5,5-dioxide]", "IC50": 2300},
      {"molecule": "CN(CCOC(=O)C1=C(c2ccccc2)NC2=C(C1c1ccccc1Cl)S(=O)(=O)CCCC2)Cc1cccs1", "note": "(centres unmarked) [Compound 17, Thiepino[3,2-b]pyridine-3-carboxylic acid, 4-(2-chlorophenyl)-1,4,6,7,8,9-hexahydro-2-phenyl-, 2-[methyl(2-thienylmethyl)amino]ethyl ester, 5,5-dioxide]", "IC50": 500},
      {"molecule": "CN(CCOC(=O)C1=C(c2ccccc2)NC2=C(C1c1cccc([N+](=O)[O-])c1)S(=O)(=O)CCCC2)Cc1cccs1", "note": "(centres unmarked) [Compound 18, Thiepino[3,2-b]pyridine-3-carboxylic acid, 1,4,6,7,8,9-hexahydro-4-(3-nitrophenyl)-2-phenyl-, 2-[methyl(2-thienylmethyl)amino]ethyl ester, 5,5-dioxide]", "IC50": 26000},
      {"molecule": "CN(CCOC(=O)C1=C(c2ccccc2)NC2=C(C1c1cccc(Cl)c1)S(=O)(=O)CCCC2)Cc1cccs1", "note": "(centres unmarked) [Compound 19, Thiepino[3,2-b]pyridine-3-carboxylic acid, 4-(3-chlorophenyl)-1,4,6,7,8,9-hexahydro-2-phenyl-, 2-[methyl(2-thienylmethyl)amino]ethyl ester, 5,5-dioxide]", "IC50": 1290},
      {"molecule": "CCOC(=O)C1=C(c2cccs2)NC2=C(C1c1cccc([N+](=O)[O-])c1)S(=O)(=O)CCCC2", "note": "(centres unmarked) [Compound 20, Thiepino[3,2-b]pyridine-3-carboxylic acid, 1,4,6,7,8,9-hexahydro-4-(3-nitrophenyl)-2-(2-thienyl)-, ethyl ester, 5,5-dioxide]", "IC50": 6540},
      {"molecule": "CCOC(=O)C1=C(c2cccnc2)NC2=C(C1c1ccccc1Cl)S(=O)(=O)CCCC2", "note": "(centres unmarked) [Compound 21, Thiepino[3,2-b]pyridine-3-carboxylic acid, 4-(2-chlorophenyl)-1,4,6,7,8,9-hexahydro-2-(3-pyridinyl)-, ethyl ester, 5,5-dioxide]", "IC50": 2000},
      {"molecule": "CCOC(=O)C1=C(c2cccnc2)NC2=C(C1c1cccc(Cl)c1)S(=O)(=O)CCCC2", "note": "(centres unmarked) [Compound 22, Thiepino[3,2-b]pyridine-3-carboxylic acid, 4-(3-chlorophenyl)-1,4,6,7,8,9-hexahydro-2-(3-pyridinyl)-, ethyl ester, 5,5-dioxide]", "IC50": 2000},
      {"molecule": "CCOC(=O)C1=C(c2cccnc2)NC2=C(C1c1cccc(C(F)(F)F)c1F)S(=O)(=O)CCCC2", "note": "(centres unmarked) [Compound 23, Thiepino[3,2-b]pyridine-3-carboxylic acid, 4-[2-fluoro-3-(trifluoromethyl)phenyl]-1,4,6,7,8,9-hexahydro-2-(3-pyridinyl)-, ethyl ester, 5,5-dioxide]", "IC50": 2000},
      {"molecule": "CC1=C(C(=O)OCCN(C)Cc2ccsc2)C(c2ccccc2Cl)C2=C(CCCCS2(=O)=O)N1", "note": "(centres unmarked) [Compound 24, Thiepino[3,2-b]pyridine-3-carboxylic acid, 4-(2-chlorophenyl)-1,4,6,7,8,9-hexahydro-2-methyl-, 2-[methyl(3-thienylmethyl)amino]ethyl ester, 5,5-dioxide]", "IC50": 149},
      {"molecule": "CC1=C(C(=O)OCCN(C)Cc2ccsc2)C(c2c(O)cccc2Cl)C2=C(CCCCS2(=O)=O)N1", "note": "(centres unmarked) [Compound 25, Thiepino[3,2-b]pyridine-3-carboxylic acid, 4-(2-chloro-6-hydroxyphenyl)-1,4,6,7,8,9-hexahydro-2-methyl-, 2-[methyl(3-thienylmethyl)amino]ethyl ester, 5,5-dioxide]", "IC50": 815},
      {"molecule": "CC1=C(C(=O)OCCN(C)Cc2ccsc2)C(c2cccc([N+](=O)[O-])c2)C2=C(CCCCS2(=O)=O)N1", "note": "(centres unmarked) [Compound 26, Thiepino[3,2-b]pyridine-3-carboxylic acid, 1,4,6,7,8,9-hexahydro-2-methyl-4-(3-nitrophenyl)-, 2-[methyl(3-thienylmethyl)amino]ethyl ester, 5,5-dioxide]", "IC50": 51}
    ]}
  ]
}
